ChEMBL document CHEMBL5143537, “Quinazoline-based hydroxamic acid derivatives as dual histone methylation and deacetylation inhibitors for potential anticancer agents” (Bioorg Med Chem, 2022)
Activity calls are given as the source filed them. The calls are words filed in the database; no cut-off is given here.

Tests used:
Histone deacetylase 1 = Histone deacetylase 1 (Homo sapiens, UniProt Q13547); assay: Inhibition of recombinant human HDAC1 expressed in baculovirus infection system using Ac-peptide-AMC as substrate preincubated for 15 mins followed by substrate addition and measured after 60 mins by fluorescence assay
HCT-116 = assay: Antiproliferative activity against human HCT-116 cells measured after 72 hrs by MTT assay; type: functional, cell-based; details: HCT-116, 72 h
[1] = molecular target: T1, Histone-lysine N-methyltransferase EHMT1 (Homo sapiens) (UniProt Q9H9B1); assay: Inhibition of GLP in human HepG2 cells assessed as reduction in H3K9Me2 expression at 1.25 to 20 uM measured after 24 hrs by Western blot analysis; type: cell-based; details: dose 1.25-20 µM
T1 sequence (whole entry): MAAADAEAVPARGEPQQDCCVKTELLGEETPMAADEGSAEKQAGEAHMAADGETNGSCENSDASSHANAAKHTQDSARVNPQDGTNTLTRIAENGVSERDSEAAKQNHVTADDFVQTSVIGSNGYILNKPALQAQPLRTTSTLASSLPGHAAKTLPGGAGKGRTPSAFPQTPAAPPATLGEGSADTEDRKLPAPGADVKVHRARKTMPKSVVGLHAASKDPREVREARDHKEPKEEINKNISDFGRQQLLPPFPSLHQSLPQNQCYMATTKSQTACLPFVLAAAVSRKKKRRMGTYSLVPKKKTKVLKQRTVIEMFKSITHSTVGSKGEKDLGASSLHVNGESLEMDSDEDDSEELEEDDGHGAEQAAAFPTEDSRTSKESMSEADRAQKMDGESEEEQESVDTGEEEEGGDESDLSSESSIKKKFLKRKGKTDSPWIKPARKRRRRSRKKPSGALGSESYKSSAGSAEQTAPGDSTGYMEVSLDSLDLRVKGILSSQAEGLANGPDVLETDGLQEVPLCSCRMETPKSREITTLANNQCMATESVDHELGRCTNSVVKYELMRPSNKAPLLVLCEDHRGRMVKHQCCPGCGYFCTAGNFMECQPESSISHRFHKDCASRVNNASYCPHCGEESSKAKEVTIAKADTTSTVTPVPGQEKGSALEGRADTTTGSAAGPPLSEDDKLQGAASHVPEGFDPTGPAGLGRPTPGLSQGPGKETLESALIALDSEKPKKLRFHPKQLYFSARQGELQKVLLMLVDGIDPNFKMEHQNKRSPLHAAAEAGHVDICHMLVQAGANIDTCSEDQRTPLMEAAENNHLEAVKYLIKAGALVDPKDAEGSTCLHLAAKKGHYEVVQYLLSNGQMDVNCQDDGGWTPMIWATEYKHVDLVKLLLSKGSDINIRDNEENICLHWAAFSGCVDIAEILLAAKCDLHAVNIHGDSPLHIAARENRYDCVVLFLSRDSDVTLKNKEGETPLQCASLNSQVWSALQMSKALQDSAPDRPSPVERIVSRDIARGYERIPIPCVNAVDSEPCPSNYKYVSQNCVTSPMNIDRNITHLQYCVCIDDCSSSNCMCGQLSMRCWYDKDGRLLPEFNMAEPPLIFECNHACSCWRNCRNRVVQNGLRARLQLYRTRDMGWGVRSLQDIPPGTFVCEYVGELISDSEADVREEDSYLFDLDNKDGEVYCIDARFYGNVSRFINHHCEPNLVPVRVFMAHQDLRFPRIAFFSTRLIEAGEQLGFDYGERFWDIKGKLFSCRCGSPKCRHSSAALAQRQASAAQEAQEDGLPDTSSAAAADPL

[2] = molecular target: Histone deacetylase (Homo sapiens) (UniProt Q13547+O15379+Q9UBN7+Q92769+Q9UQL6+Q8WUI4+Q9BY41+Q96DB2+P56524+Q9UKV0+Q969S8); assay: Inhibition of HDAC in human HepG2 cells assessed as increase in Ac-H3K9 expression at 1.25 to 20 uM measured after 24 hrs by Western blot analysis; type: cell-based; details: dose 1.25-20 µM
HepG2 [3] = assay: Induction of apoptosis in human HepG2 cells assessed as late apoptotic cells at 2.5 uM measured after 48 hrs by Annexin V-FITC/propidium iodide staining based flow cytometry (reference value: 4.55%); type: functional
HepG2 [4] = assay: Induction of apoptosis in human HepG2 cells assessed as necrotic cells at 5 uM measured after 48 hrs by Annexin V-FITC/propidium iodide staining based flow cytometry (reference value: 0%); type: functional
HepG2 [5] = assay: Cell cycle arrest in human HepG2 cells assessed as accumulation at G0/G1 phase at 5 uM measured after 48 hrs by propidium iodide staining based flow cytometry (reference value: 55.24%); type: functional
HepG2 [6] = assay: Cell cycle arrest in human HepG2 cells assessed as accumulation at S phase at 10 uM measured after 48 hrs by propidium iodide staining based flow cytometry (reference value: 32.39%); type: functional
HepG2 [7] = assay: Cell cycle arrest in human HepG2 cells assessed as increase in p27 expression measured after 24 hrs by Western blot analysis; type: functional, cell-based; details: dose 1.25-20 µM, DDE = dose-dependent effect
HepG2 [8] = assay: Antimigratory activity against human HepG2 cells measured after 24 hrs by wound healing assay; type: functional, cell-based; details: dose 1.5-5 µM, DDE = dose-dependent effect
[9] = Metabolic stability in rat liver microsomes assessed as parent compound remaining at 1 uM measured after 15 mins by LC-MS/MS analysis; type: ADME, Microsome; details: read-out: Stability
[10] = Metabolic stability in rat liver microsomes assessed as parent compound remaining at 1 uM measured after 45 mins by LC-MS/MS analysis; type: ADME, Microsome; details: read-out: Stability
[11] = Half life in rat liver microsomes at 1 uM by LC-MS/MS analysis; type: ADME, Microsome

Sequence of Histone deacetylase 1 (Q13547 whole entry): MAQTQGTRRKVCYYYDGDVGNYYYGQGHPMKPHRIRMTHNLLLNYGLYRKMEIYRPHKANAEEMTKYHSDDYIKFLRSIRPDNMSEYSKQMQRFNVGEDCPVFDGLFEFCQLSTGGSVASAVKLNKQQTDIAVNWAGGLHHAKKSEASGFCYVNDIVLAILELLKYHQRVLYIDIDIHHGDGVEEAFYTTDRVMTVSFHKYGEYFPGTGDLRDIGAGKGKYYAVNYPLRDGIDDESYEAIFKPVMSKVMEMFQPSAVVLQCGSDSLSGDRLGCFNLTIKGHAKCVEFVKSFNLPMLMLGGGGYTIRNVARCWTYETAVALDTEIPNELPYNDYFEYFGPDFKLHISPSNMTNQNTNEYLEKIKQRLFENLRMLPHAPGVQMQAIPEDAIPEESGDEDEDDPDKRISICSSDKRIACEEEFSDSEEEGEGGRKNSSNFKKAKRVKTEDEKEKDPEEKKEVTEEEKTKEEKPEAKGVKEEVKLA

COc1cc2nc(N3CCN(CCCCCC(=O)NO)CC3)nc(NC3CCN(Cc4ccccc4)CC3)c2cc1OC
IC50 (Histone deacetylase 1): 0.089 µM | IC50 (HCT-116): 11.1 µM | inhibition [1]: Active | inhibition [2]: Active | Activity (HepG2 [3]): 2.27% | Activity (HepG2 [4]): 0% | Activity (HepG2 [5]): 58.07% | Activity (HepG2 [6]): 24.67% | Activity (HepG2 [7]): Dde | Activity (HepG2 [8]): Dde | remaining at 0.25 h, 1 µM [9]: 50.2% | remaining at 0.75 h, 1 µM [10]: 14.2% | half-life at 1 µM [11]: 16 min
